{
  "source": "patent US6673785B1",
  "about": "“Use of hepoxilins or hepoxilin analogs as antidiabetics, antiinflammatory agents” (priority 1999, dated 2004)",
  "key": {"[1]": {"system": "human neutrophils", "assay": "HxA3-induced rise in intracellular calcium in neutrophils with internalised GTP-γ-S or GTP", "assay_type": "cell-based", "conditions": "for effect of internalised nucleotide on HxA3-induced rise in intracellular calcium: approximate cytosolic concentration 21 μM", "source_text": "(§1) For measurement of intracellular calcium, the cells were centrifuged and loaded with INDO-1 AM (see Methods for details). The change in intracellular calcium was monitored with fluorescence spectrophotometer at 331 nm excitation and 410 nm emission. […] Data represents the Mean±SD (n=4 separate experiments).\n(§2) The method of Jaconi et al (1993, J. Biol. Chem. 268, 26077-26078] was employed with modifications to incorporate GTP-γ-S or GTP into human neutrophils. Specifically, 20×10^6 cells were incubated in 100 μl of sucrose-rich (500 mM) buffer containing in mM: NaCl 140, KCl 5, MgCl2 1, Hepes sodium-free 10, glucose 10, and EGTA 1, 10% polyetylene glycol 1000, pH 7.3. The buffer either contained nothing else (control) or GTP-γ-S (50 mM) or GTP (50 mM). The cells were incubated for 15 min at 37° C. to allow fluid-phase endocytosis of extracellular material. The cells were hypotonically shocked during 2 min at 37° C. by the addition of 1 mL of hypotonic medium made up of 1 part normal medium and 0.66 parts of water [Hallet & Campbell. 1983, Immunology, 50, 487-495]. The cells were then centrifuged at 900 rpm×5 min and resuspended in 2 mL of calcium-free assay medium for the binding studies or in RPMI 1640 for the calcium measurements. […] The particulate matter was sedimented through centrifugation and fluorescence in the supernatant was measured in a fluorescence spectrophotometer and 430 nm excitation, 540 nm emission using dilutions of the dye as standard. While unshocked neutrophils contained virtually no fluorescence above background, the shocked cells contained approximately 24 ng dye/4×10^6 cells. […]\n(§3) Intracellular free calcium concentrations were monitored continuously in a Perkin-Elmer fluorescence spectrophotometer (Model 65040) using Indo-I AM-loaded neutrophils. […]\n(§4) Unloaded dye was removed by centrifugation and the cells were resuspended in fresh RPMI 1640(1 mL). […] The resulting effect was recorded on a chart recorder (LKB model 2210, Pharmacia, Sweden) at 1 cm/min chart speed for the next 5 min (FIG. 20)."}, "[2]": {"system": "hepoxilin binding protein in neutrophils", "assay": "Binding of [3H]-HxA3 (8S) to neutrophils with internalised GTP-γ-S or GTP", "design": "species or system human", "conditions": "approximate cytosolic concentration 21 μM", "source_text": "as §1\nas §2, with “487-495].” for “487-495]. The cells were then centrifuged at 900 rpm×5 min and resuspended in 2 mL of calcium-free assay medium for the binding studies or in RPMI 1640 for the calcium measurements.”, “standard.” for “standard. While unshocked neutrophils contained virtually no fluorescence above background, the shocked cells contained approximately 24 ng dye/4×10^6 cells.”"}, "[3]": {"system": "bleomycin-induced lung fibrosis", "assay": "Bleomycin-induced lung injury mouse model", "assay_type": "in vivo", "conditions": "for inhibition of bleomycin-evoked lung fibrosis, relative potency: 200 μg/mouse bleomycin, various concentrations", "method": "Mice were divided into 7 groups, each containing 5 animals. All groups were administered i.p. saline+7% ethanol as vehicle. Group 1 received only vehicle. Groups 2-7 received intratracheal bleomycin. Bleomycin is an antibiotic having antineoplastic activity. It is used clinically to treat malignancies such as lymphoma and testicular cancer. However, it has several side effects such as causing lung fibrosis characterized by diffuse alveolar hemorrhage and marked accumulation of inflammatory cells and an increase in collagen synthesis. Additionally, Group 3 received Trolox antioxidant, Group 4 received H1, Group 5 received H2, Group 6 received H3, and Group 7 received H4. All hepoxilins were dissolved in 7 μl ethanol and diluted to 100 μl saline for i.p. administration. All compounds were administered daily at the dose of 100 μg/20 g (5000 μg/kg) mouse for 8 days. Lungs from all animals were perfused and fixed for histology. […] As in section B1 above, the effective concentration of the drugs is unknown due to the still undetermined uptake and distribution in the body. The present study served as an indicator of biological activity in vivo. The study was also conducted using saline or 200 μg/mouse bleomycin. In these studies the hepoxilin analogs H1 and H2 were administered in various concentrations (FIGS. 14A-14E). […] Lung fibrosis was associated with increased collagen synthesis (FIGS. 15A, 15B). […] Collagen staining was done using sirius red and fast green."}, "[4]": {"system": "bleomycin-evoked vascular permeability", "assay": "Bleomycin-evoked skin vascular permeability (Evans Blue)", "assay_type": "in vivo", "conditions": "100 ng intradermally, bleomycin 12 μg", "method": "H1 and 2 blocked the bleomycin (12 μg)—evoked vascular permeability at 100 ng intradermally. (FIGS. 18 and 19). Vascular permeability was measured using Evans Blue I.V. Hepoxilin analogs were intradermally applied and within 30 minutes, a formamide extraction of punched skin was done. Extraction and absorbance was read at 620 nm."}, "[5]": {"system": "human neutrophils", "assay": "Rise in intracellular calcium in INDO-1AM loaded neutrophil suspensions, normal vs Type 1 diabetic", "assay_type": "cell-based", "source_text": "It was previously reported that the native HX cause a rise in intracellular calcium in suspensions of human neutrophils. […] In view of the findings reported above on alterations in the hepoxilin binding protein in diabetes, it was investigated whether the response to varied amounts of hepoxilin in terms of calcium release was altered in Type 1 diabetic neutrophils. This involved measurement of the rise in intracellular calcium in INDO-1AM loaded neutrophil suspensions spectrofluorometrically after addition of HxA3.\nNormal and diabetic neutrophils were compared to 4 concentrations of HxA3, i.e. 100, 200, 500 and 1000 ng added in 1 μl DM50 to 2×10^6 cells/ml. […] Additional data was obtained by administering 1000 ng of hepoxilin five minutes after the first test. Previous results with normal neutrophils have shown that the response to a second addition of hepoxilin is blunted depending on the extent of calcium rise in the first test. […]\nas §3, §4"}},
  "data": [
    {"smiles": "Nc1nc2c(ncn2[C@@H]2O[C@H](COP(=O)(O)OP(=O)(O)OP(O)(O)=S)[C@@H](O)[C@H]2O)c(=O)[nH]1", "note": "[GTP-γ-S]", "values": [
      {"measurement": "effect of internalised nucleotide on HxA3-induced rise in intracellular calcium", "setting": "[1]", "result": "inhibition"},
      {"measurement": "effect of internalised nucleotide on binding of [3H]-HxA3", "setting": "[2]", "result": "inhibition"}
    ]},
    {"smiles": "Nc1nc2c(ncn2[C@@H]2O[C@H](COP(=O)(O)OP(=O)(O)OP(=O)(O)O)[C@@H](O)[C@H]2O)c(=O)[nH]1", "note": "[GTP]", "values": [
      {"measurement": "effect of internalised nucleotide on HxA3-induced rise in intracellular calcium", "setting": "[1]", "result": "no significant change"}
    ]},
    {"smiles": "CCCCC/C=C\\CC1CC1/C=C/[C@@H](O)C/C=C\\CCCC(=O)OC", "note": "(stereo partly drawn) [H1, 8(S)-hydroxy-11 ,12-cyclopropyl-eicosa-5Z, 10E, 14Z-trienoic acid methyl ester]", "values": [
      {"measurement": "inhibition of bleomycin-evoked lung fibrosis, relative potency", "setting": "[3]", "result": "most potent"},
      {"measurement": "dose dependence of activity against lung fibrosis", "setting": "[3]; 400 μg/kg, 2 mg/kg, 4 mg/kg", "result": "dose dependent"},
      {"measurement": "potency against lung fibrosis compared with Amifostine and Trolox", "setting": "[3]; Amifostine 200 mg/kg, Trolox 30 mg/kg", "result": "more potent than Amifostine (200 mg/kg) or Trolox (30 mg/kg)"},
      {"measurement": "threshold activity against lung fibrosis", "setting": "[3]; i.p.", "result": 400, "unit": "µg/kg"},
      {"measurement": "bleomycin-evoked vascular permeability", "setting": "[4]", "result": "blocked"}
    ]},
    {"smiles": "CCCCC/C=C\\CC1CC1/C=C/[C@H](O)C/C=C\\CCCC(=O)OC", "note": "(stereo partly drawn) [H2, 8(R)hydroxy-11,12-cyclopropyl-eicosa-5Z, 10E, 14Z-trienoic acid methyl ester]", "values": [
      {"measurement": "inhibition of bleomycin-evoked lung fibrosis, relative potency", "setting": "[3]", "result": "most potent"},
      {"measurement": "bleomycin-evoked vascular permeability", "setting": "[4]", "result": "blocked"}
    ]},
    {"smiles": "CCCCC/C=C\\C[C@@H]1O[C@H]1/C=C/C(O)C/C=C\\CCCC(=O)O", "note": "(stereo partly drawn) [HxA3, 8(S,R)-hydroxy-11(S),12(S)-epoxy-eicosa-5Z, 9E, 14Z-trienoic acid]", "values": [
      {"measurement": "calcium response to second addition, diabetic vs normal neutrophils", "setting": "[5]; 1000 ng five minutes after the first test", "result": "more inhibition"},
      {"measurement": "rise in intracellular free calcium, diabetic vs normal neutrophils", "setting": "[5]; 100, 200, 500 and 1000 ng in 1 μl to 2×10^6 cells/ml", "result": "diabetic neutrophils are more responsive"},
      {"measurement": "change in intracellular calcium", "setting": "[1]; 2×10^6 cells in 1 mL calcium-free buffer, 37° C.", "result": "rapid rise in intracellular calcium"}
    ]}
  ]
}
